What was measured:
Staphylococcus aureus = assay: Bacterial growth inhibition (turbidity OD600) with or without carbonate; type: cell-based; details: for increase of LL-37 antimicrobial activity by carbonate containing compound: medium with 32 μM LL-37, pH 7.4, KHCO3 and Na2CO3 at 50 mM
C. albicans = assay: Liquid assay, minimum fungicide concentration; type: cell-based, Candida albicans
Procedure: Action against the C. albicans was determined in Dixon medium (0.6% Peptone, 4% Malt Extract, 1% Glucose, 0.1% Ox Bile, 1% Tween-80) in sterile 96-well microtiter plates (Corning Inc., Corning, N.Y.) at a final volume of 50 ml. […] Microtiter plates were incubated at 37° C. for 24 h with peptides, then plated on Dixon agar to determine the MFC (minimum fungicide concentration).

[1] = tested on: enteroinvasive E. coli 029; assay: Radial diffusion assay; type: cell-based
[2] = tested on: wild-type S. aureus (clinical isolate); assay: Radial diffusion assay; type: cell-based
acetylated histone H4 = assay: Histone H4 acetylation in keratinocytes (immunofluorescence, Western blot); type: cell-based, human; details: NHEK stimulated with butyrate or TLR ligand
Procedure: Panel a; Immunofluorescence staining of acetylated histone H4 protein in NHEK treated with HDACi in the presence or absence of 1,25D3. […] Panel b: Western blot of acetylated histone 4 from keratinocytes treated with the HDACi butyrate or TLR agonists. […] Bar=30 μM.
The abundance of acetylated histone was directly measured to confirm the inhibitory effects of butyrate and TSA on HDACs. […] To determine if changes in histone acetylation occur upon stimulation of keratinocytes with TLR ligands NHEK were stimulated with different TLR ligands and histone acetylation was assessed.

cathelicidin = assay: qPCR of cathelicidin mRNA in cultured keratinocytes; type: cell-based, human
Procedure: (§1) Cell culture and stimuli. Human keratinocytes were grown in serum-free EpiLife® cell culture media (Cascade Biologics; Portland, Oreg.) containing 0.06 mM Ca2+ and 1× EpiLife® defined growth supplement (EDGS) at 37° C. under standard tissue culture conditions. Stock cultures were maintained for up to five passages in this media with the addition of 50 U/mL penicillin and 50 μg/mL streptomycin. HaCaT keratinocytes were cultured in DMEM (Sigma, St. Louis, Mo.) with 10% FCS. Cells at 50-70% confluence were stimulated in fresh medium after preincubation with 1,25(OH)2 vitamin D3 (1,25D3; 0.1-100 nM, 4-24 h; Sigma). Alternatively, NHEK were stimulated in the presence of 1,25D3 (0.1-100 nM). Stimuli included TLR2,6 ligands Malp-2 (0.001-0.5 μg/ml; Alexis Biochemicals, Carlsbad, Calif.), FSL-1 (1-2 μg/ml, Invivogen, San Diego, Calif.) and zymosan (50 μg/ml; Invivogen), as well as flagellin (50 ng/ml; Alexis), LPS (1 μg/ml; Sigma), lipoteichoic acid (LTA; 10 μg/ml; Sigma), 19 kDA lipopeptide (10 μg/ml, a kind gift from S. Krutzik, Division of Dermatology, UCLA), CpG DNA (10 μg/ml; Sigma), Ca2+ (1.7 mM), LPS (1 μg/ml; Sigma), TNFα (20 ng/ml; Chemicon Temecula, Calif.) and TGFβ1 (0.1-1 μg/ml; R&D Systems, Minneapolis, Minn.). A TLR2 blocking antibody (αTLR2; clone TL2.1, 5 μg/ml, eBioscience, San Diego, Calif.) was utilized to investigate the role of TLR2 signaling. Furthermore, keratinocytes were pretreated with a vitamin D receptor antagonist (VDR-antagonist ZK159222 Schering AG; 10^-7M) or the CYP inhibitor itraconazole (ITRA; 10^-7M) before stimulation with TGFβ in the presence of 25OH vitamin D3 (25D3, 10 nM, Sigma).
(§2) Real-time RT-PCR (qPCR). RNA was extracted from cells, epidermal constructs or tissue using Trizol® and 1 μg RNA was reverse transcribed using iScript® (BioRad, Hercules, Calif.). Expression of cathelicidin and GAPDH was analysed by real-time RT-PCR. Predeveloped Taqman® assay probes (ABI, Foster City, Calif.) were used for the analyses of the expression of CYP24A1 (24-hydroxylase), CYP27B1 (1α-hydroxylase), CD14, CD36, TLR1, TLR2, TLR4, TLR6 and murine CD14. All analyses were performed in triplicate from 2-5 independent experiments in an ABI Prism® 7000 Sequence Detection System. Fold induction relative to the vehicle treated control in in vitro experiments was calculated using the comparative Ct method, where ΔΔCt is ΔCt(stimulant)-ΔCt(vehicle), ΔCt is Ct(gene)-Ct(GAPDH) and Ct is the cycle at which an arbitrary detection threshold is crossed. For quantification of transcript abundance in tissue samples target gene expression was normalized to GAPDH and compared to non-treated or non-injured skin.

CD14 = assay: qPCR of CD14 mRNA in cultured keratinocytes; type: cell-based, human; details: for CD14 mRNA expression: 24 hours
Procedure: as §1, §2

TLR2 = assay: qPCR of TLR2 mRNA in cultured keratinocytes; type: cell-based, human; details: for TLR2 mRNA expression: 24 hours
Procedure: as §1, §2

S. aureus DmprF = assay: Antimicrobial activity of keratinocyte lysates (bacterial growth, OD600); type: cell-based, Staphylococcus aureus; details: versus unstimulated keratinocytes
Procedure: Panel a: NHEKs were stimulated with 1,25D3 (10^−9-10^−7 M) in the presence of the HDAC inhibitor butyrate (BUT; 2 mM) for 24 hours. mRNA abundance was determined by real-time qPCR for cathelicidin and glyceraldehyde-3-phosphate dehydrogenase and normalized to vehicle-treated controls. […] Data shown are means (7SD) of the results from a single stimulation experiment performed in triplicates and are representative of at least three independent experiments (**P<0.01; ***P<0.001; two-way analysis of variance). Panel b: The HDAC inhibitor TSA (200 ng ml^−1) induces cathelicidin in the presence of 1,25D3 (10^−8M). Expression of cathelicidin is dependent on a functional VDR, as pretreatment with the VDR antagonist ZK159222 (10^−7 M) inhibits induction of cathelicidin with BUT (2 mM) in the presence of 1,25D3 (10^−8 M) after 24 hours. Expression of cathelicidin was determined by qPCR as described in Panel a. (*P<0.05; Student's t-test). Panel c: Increased transcript correlates with enhanced cathelicidin protein expression after HDAC inhibitor and 1,25D3 stimulation. NHEKs grown on chamber slides were stimulated with the vehicle, 1,25D3 (10^−8M), BUT (2 mM), or the combination for 24 hours. Cells were stained with a polyclonal anti-LL-37 antibody (followed by an FITC-coupled secondary antibody) and nuclei detected with 4,6-diamidino-2-phenylindole (Bar=30 μM). […] NHEKs were stimulated with 1,25D3 (10^−8M) in combination with the HDAC inhibitor BUT (2 mM) for 24 hours, cells harvested and cell lysates co-incubated with S. aureus DmprF, and bacterial growth monitored over time to determine antimicrobial activity. Media not containing cell lysates or containing cell lysates from unstimulated cells were used as controls.

[3] = tested on: Staphylococcus aureus mprF; assay: Radial diffusion assay; type: cell-based; details: LL-37 incubated in sweat, 37° C., 6 hr
Procedure: Sweat collection and processing. Sweat was collected on paper tissues (Kimwipes, Kimberly-Clark, Ga.) from healthy volunteers after exercise. After collection, 20 ml of sweat was centrifuged at 2000 g for 15 min. at 4° C., filtered through a […] (Acrodisc syringe filter, 0.2 mm, low protein binding, Fisher scientific, Tustin, Calif.), and frozen at −80° C. For some experiments sweat was lyophilized to dryness, then suspended in 400 μl of distilled water (DW: cell culture grade, endotoxin free, GibcoBRL, Grand island, NY). For analysis of LL37 processing by sweat, 1.6 nmol of LL-37 synthetic peptide was incubated in 50 ml of sweat for 0, 1, 6, 24 hrs at 37° C. or 4° C. In some experiments proteinase inhibitors including; mixed protease inhibitor cocktail (1tab/10 ml, Roche, Indianapolis, Ind.), […] Bestatin, 10 mg/ml E-64, 10 mg/ml Aprotinin, (Sigma, St Louis, Mo.); 100 mM AEBSF, 100 mM Neutrophil elastase inhibitor (NEI) or 100 mM leukocyte elastase inhibitor (LEI) (Calbiochem, San Diego, Calif.) were added during incubation. After incubation, 2 ml was assayed by radial diffusion assay to determine antibacterial activity. For analysis by HPLC 32 nmoles LL-37 was incubated in 100u1. To control for potential contamination from paper tissues, parallel processing was done on tissues soaked in phosphate-buffered saline (PBS:137 mM NaCl, 2.7 mM KCL, 4.3 mM Na2HPO4-H2O, 1.4 mM KH2PO4, pH 7.4). No antimicrobial activity was detectable in these preparations. Protein concentrations were evaluated by BCA assay (protein assay reagent, Pierce, Rockford, Ill.) or Bradford protein assay (Bio-Rad, Hercules, Calif.) according to manufacture's instructions. Human tissue and blood collection was approved by the UCSD Human Research Protection Program.
Antimicrobial assays. For screening of antimicrobial activity of HPLC fractions, radial diffusion assay was used. Lyophilized HPLC fractions were dissolved in DW (GibcoBRL, Grand Island, N.Y.), and tested against Staphylococcus aureus mprF. Thin plates (1 mm) of 1% agarose in 0.5% tryptone containing approximately 1×10^6 cells/ml of S. aureus mprF were used. 1 mm wells were punched in the plates and […] of samples dissolved in tissue culture grade sterile water were loaded in each well.

[4] = radial diffusion and solution assay
[5] = pretreatment with antagonist 10^−7M
[6] = 25D3 (10 nM) or TGF (1 μg/ml) alone
[7] = 25D3 (10 nM) together with TGF (1 μg/ml)

Human Beta Defensin-2
enhancement of peptide activity by 50 mM NaHCO3 (EF) (Staphylococcus aureus; 20% TSB, 10% FBS, 1 mM NaH2PO4, 150 mM NaCl, pH 7.4): enhanced

O=C([O-])[O-].[Na+].[Na+] [Na2CO3]
increase of LL-37 antimicrobial activity by carbonate containing compound (Staphylococcus aureus): also increased antimicrobial activity

RKSKEKIGKEFKRIVQRIKDFLRNLVPRTES [RK-31, cathelicidin peptide generated from LL-37 in sweat]
fungicidal activity against Candida albicans compared to LL-37 (C. albicans): increased fungicidal activity | action against E. coli compared to LL-37 [1, 4]: greatly increased action | action against wild-type S. aureus compared to LL-37 [2, 4]: greatly increased action

PR-39: porcine cathelicidin antimicrobial peptide (RRRPRPPYLPRPRPPPFFPPRLPPRIPPGFPPRFPPRFP; UniProt P80054 131-169, looked up)
change of minimal inhibitory concentration (MIC) by NaHCO3 (Staphylococcus aureus; 20% TSB, 1 mM NaH2PO4, with or without 50 mM NaHCO3, pH 7.4): greatly reduced

Poly(I:C)
acetylation of histone H4 (acetylated histone H4): did not change histone acetylation

CC(/C=C/C(=O)NO)=C\[C@@H](C)C(=O)c1ccc(N(C)C)cc1 [Trichostatin A]
effect of HDAC inhibitor on 1,25D3 induced cathelicidin (cathelicidin; TSA 200 ng ml^−1 with 1,25D3 (10^−8M)): significantly increased 1,25D3 induced cathelicidin

CCCc1nc2c(N)nc3ccccc3c2s1 [CL075]
acetylation of histone H4 (acetylated histone H4): did not change histone acetylation

C=C1/C(=C\C=C2/CCC[C@]3(C)[C@@H]([C@H](C)/C=C/[C@@H](O)C4(C(=O)OCCCC)CC4)CC[C@@H]23)C[C@@H](O)C[C@@H]1O [VAZ]
effect of VDR antagonist on cathelicidin induction by HDAC inhibitor plus 1,25D3 (cathelicidin; ZK159222 10^−7 M, BUT 2 mM, 1,25D3 10^−8 M, 24 hours): decreased the capacity of the HDAC inhibitor to increase cathelicidin | block of cathelicidin induction by TGF plus 25D3 (cathelicidin; [5]): blocked this effect | block of CD14 induction by TGF plus 25D3 (CD14; [5]): blocked this effect | block of TLR2 induction by TGF plus 25D3 (TLR2; [5]): blocked this effect

C=C1CC[C@H](O)C/C1=C/C=C1\CCC[C@]2(C)[C@@H]([C@H](C)CCCC(C)(C)O)CC[C@@H]12 [25D3, 25OH vitamin D3]
cathelicidin mRNA expression (cathelicidin; 25D3 (10 nM) or TGF (1 μg/ml) alone, 24 hours): Neither 25D3 nor TGF alone affected expression | cathelicidin mRNA expression (cathelicidin; 25D3 (10 nM) together with TGF (1 μg/ml), 24 hours): simultaneous addition induced | CD14 mRNA expression (CD14; [6]): Neither 25D3 nor TGF alone affected expression | CD14 mRNA expression (CD14; [7]): simultaneous addition induced | TLR2 mRNA expression (TLR2; [6]): Neither 25D3 nor TGF alone affected expression | TLR2 mRNA expression (TLR2; [7]): simultaneous addition induced

C=C1CC[C@H](O)C/C1=C/C=C1\CCC[C@]2(C)[C@@H]([C@H](C)CCCC(C)C)CC[C@@H]12 [Vitamin D3]
antimicrobial activity of stimulated keratinocytes against Staphalococcus aureus (S. aureus DmprF): enhanced antimicrobial activity | expression of cathelicidin (cathelicidin; normal human keratinocytes and HaCat cell line): induced the expression of cathelicidin

Aprotinin
blocking of the gain in LL-37 antimicrobial activity in sweat by protease inhibitor [3]: most effective in blocking the increase in antimicrobial activity

KRIVQRIKDFLRNLVPRTES [KR-20, 20 amino acid cathelicidin derivative generated from LL-37 in sweat]
fungicidal activity against Candida albicans compared to LL-37 (C. albicans): increased fungicidal activity | Radial Diffusion Assay, minimal inhibitory concentration (MIC), E. coli (O29)) [1]: 4 μm | Radial Diffusion Assay, minimal inhibitory concentration (MIC), S. aureus (wt) [2]: 4 μm

FSL-1
cathelicidin induction by TLR2,6 ligand (cathelicidin; in the presence of 1,25D3 (100 nM)): capable of inducing cathelicidin

CC(C)Cn1cnc2c(N)nc3ccccc3c21 [Imiquimod]
acetylation of histone H4 (acetylated histone H4): did not change histone acetylation

NCCc1ccc(S(=O)(=O)F)cc1 [AEBSF]
blocking of the gain in LL-37 antimicrobial activity in sweat by protease inhibitor [3]: most effective in blocking the increase in antimicrobial activity

O=C([O-])O.[K+] [KHCO3]
increase of LL-37 antimicrobial activity by carbonate containing compound (Staphylococcus aureus): also increased antimicrobial activity

flagellin
cathelicidin expression in response to TLR ligand (cathelicidin; keratinocytes pretreated with 1,25D3 0.1 nM 24 hours, then TLR ligand 24 hours): not to other TLR agonists | acetylation of histone H4 (acetylated histone H4): did not change histone acetylation
